Blank lines part the entries; values can stand above or below the substance they belong to. Bridge positions count the residues as written; N and C are the ends. Square brackets hold non-standard residues; d marks the D form. Ends that are not written are not given here. Dap = NC[C@H](N)C(=O)O
What was measured:
Class B receptors = assay: cAMP accumulation in cells expressing Class B receptors; assay type: cell-based; details: receptors other than the corresponding receptor
Text: (§1) FIG. 4 contains a series of graphs plotting cAMP accumulation versus concentration of amino-terminal polypeptides from the calcitonin (residues 73-80; SEQ ID NO:6) and VPAC1 (residues 51-71; SEQ ID NO:4) receptors that were used to stimulate cells expressing Class B receptors.
(§2) FIG. 6 contains a series of graphs plotting cAMP accumulation versus concentration of the WDN tripeptide or amino-terminal polypeptides from the VPAC1 receptor (residues 51-71; SEQ ID NO:4), the calcitonin receptor (residues 73-80; SEQ ID NO:6), and the GLP1R (residues 63-70; SEQ ID NO:22) that were used to stimulate cells expressing Class B receptors as indicated.
(§3) Polypeptides representing the analogous region of the amino terminus of the Class B G protein-coupled calcitonin and VPAC1 receptors (FIG. 1) were also synthesized. […] The agonist activity of these endogenous polypeptides was not limited to the corresponding receptors. The polypeptides were also active at other structurally-related family members (FIG. 4).
(§4) Additional experiments were performed and curves were regenerated (FIG. 6), as described herein and as described elsewhere (Dong et al., Mol. Pharmacol., 70(1):206-13 (2006)). […] Each polypeptide used to generate the data presented in FIG. 6 was a cyclic polypeptide, except for the VPAC1(51-71) polypeptide. […]

calcitonin receptor = target: T1, calcitonin receptor (Homo sapiens, UniProt P30988); assay: cAMP accumulation in cells expressing the calcitonin receptor; assay type: cell-based
T1 sequence (P30988 25-474): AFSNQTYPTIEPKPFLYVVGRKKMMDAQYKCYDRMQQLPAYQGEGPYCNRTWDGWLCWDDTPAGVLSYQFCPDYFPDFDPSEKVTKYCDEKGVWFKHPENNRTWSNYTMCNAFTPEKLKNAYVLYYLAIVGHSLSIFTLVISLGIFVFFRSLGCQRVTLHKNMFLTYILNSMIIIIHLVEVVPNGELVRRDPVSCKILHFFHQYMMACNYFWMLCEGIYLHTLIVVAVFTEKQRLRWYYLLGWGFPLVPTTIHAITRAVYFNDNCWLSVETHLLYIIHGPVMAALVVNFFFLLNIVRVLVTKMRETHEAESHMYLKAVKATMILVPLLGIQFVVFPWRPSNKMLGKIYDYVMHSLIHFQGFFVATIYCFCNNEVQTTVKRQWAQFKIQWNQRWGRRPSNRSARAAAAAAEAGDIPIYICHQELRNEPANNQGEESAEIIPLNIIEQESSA
Text: as §1, §3

secretin receptor = target: T2, secretin receptor (Rattus norvegicus, UniProt P23811); assay: cAMP accumulation in CHO cells expressing the secretin receptor (CHO-SecR); assay type: cell-based; details: for agonist activity (stimulation of cAMP accumulation): 30 min at 37° C.; for potency (cAMP accumulation), relative comparison: secretin receptor (SecR)
T2 construct: expressed in transfected cells; host or cells: CHO (CHO-SecR)
T2 sequence (P23811 26-449): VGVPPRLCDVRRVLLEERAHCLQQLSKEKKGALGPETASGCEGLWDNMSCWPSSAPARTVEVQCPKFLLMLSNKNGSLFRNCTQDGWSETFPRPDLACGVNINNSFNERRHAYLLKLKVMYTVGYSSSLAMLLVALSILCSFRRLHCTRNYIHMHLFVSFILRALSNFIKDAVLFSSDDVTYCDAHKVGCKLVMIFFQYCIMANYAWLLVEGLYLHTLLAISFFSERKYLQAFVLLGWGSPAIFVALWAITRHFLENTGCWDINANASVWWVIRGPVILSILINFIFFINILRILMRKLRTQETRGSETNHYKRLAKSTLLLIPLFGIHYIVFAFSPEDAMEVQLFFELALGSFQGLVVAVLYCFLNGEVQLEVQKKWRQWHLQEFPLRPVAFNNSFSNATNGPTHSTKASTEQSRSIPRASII
Text: (§5) FIG. 2 contains a series of graphs plotting accumulation of cAMP versus concentration of polypeptide used to stimulate cells. Presented in panel A are curves of cAMP accumulation in Chinese hamster ovary cells expressing the secretin receptor (CHO-SecR), and in the cells of the parental CHO cell line not expressing the secretin receptor, in response to increasing concentrations of secretin or a synthetic polypeptide (SEQ ID NO:1) corresponding to the region of the amino terminus of the secretin receptor between the first and third conserved cysteine residues, Cys^24 and Cys^53 (corresponding to residues 46 to 75 of GenBank Accession Number AAH81781). Presented in panel B are curves of cAMP accumulation in CHO-SecR cells in response to increasing concentrations of the indicated pentapeptide (SEQ ID NO:3), tripeptides, or dipeptides. Presented in panel C are curves of cAMP accumulation in CHO-SecR cells in response to increasing concentrations of a linear tripeptide, cyclic tripeptides, or a myristolated cyclic tripeptide. Adherent cells that were 75 percent confluent were stimulated with the polypeptide in Krebs-Ringers-HEPES medium for 30 min at 37° C. Cellular cAMP was quantified as previously reported (Holtmann et al., J. Biol. Chem. 270, 14394 (1995)). Values represent means±S.E.M. of data from a minimum of three independent assays performed in duplicate. Myr indicates myristoylated cyclic tripeptide.
It was determined whether a synthetic polypeptide corresponding to the region of the secretin receptor amino terminus between residues 24 and 53 (FIG. 1), which shares no homology with any part of the natural agonist polypeptide, could act as an endogenous agonist ligand. […] The cAMP response was dependent on the concentration of the polypeptide. […] The polypeptide had no effect on cAMP levels in the parental CHO cell line, even at concentrations as high as 100 μM (FIG. 2A).

human GLP1R = human GLP1R (Homo sapiens, UniProt P43220); assay: cAMP accumulation in cells expressing the GLP1R; assay type: cell-based
Sequence of human GLP1R (P43220 24-463 L260F/A316G): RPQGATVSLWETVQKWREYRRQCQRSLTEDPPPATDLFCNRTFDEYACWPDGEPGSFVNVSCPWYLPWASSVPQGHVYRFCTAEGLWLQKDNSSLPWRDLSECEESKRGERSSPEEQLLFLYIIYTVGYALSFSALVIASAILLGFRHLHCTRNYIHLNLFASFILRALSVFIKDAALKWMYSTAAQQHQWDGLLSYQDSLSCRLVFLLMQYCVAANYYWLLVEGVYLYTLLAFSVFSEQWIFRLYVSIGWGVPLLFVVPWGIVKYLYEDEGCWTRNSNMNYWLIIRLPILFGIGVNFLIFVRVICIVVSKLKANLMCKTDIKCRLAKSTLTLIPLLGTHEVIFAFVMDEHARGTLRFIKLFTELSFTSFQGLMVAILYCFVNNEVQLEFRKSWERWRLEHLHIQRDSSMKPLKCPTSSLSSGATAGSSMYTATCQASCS
Description: as §2
Additional experiments were performed and curves were regenerated (FIG. 6), as described herein and as described elsewhere (Dong et al., Mol. Pharmacol., 70(1):206-13 (2006)). […] Each polypeptide used to generate the data presented in FIG. 6 was a cyclic polypeptide, except for the VPAC1(51-71) polypeptide. Linear versions of each polypeptide were also tested and found to behave in a similar manner as the corresponding cyclic polypeptides, with similar potencies and efficacies.

VPAC1 receptor = target: T3, VPAC1 receptor (Rattus norvegicus, UniProt P30083); assay: cAMP accumulation in cells expressing the VPAC1 receptor; assay type: cell-based
T3 sequence (P30083 31-459): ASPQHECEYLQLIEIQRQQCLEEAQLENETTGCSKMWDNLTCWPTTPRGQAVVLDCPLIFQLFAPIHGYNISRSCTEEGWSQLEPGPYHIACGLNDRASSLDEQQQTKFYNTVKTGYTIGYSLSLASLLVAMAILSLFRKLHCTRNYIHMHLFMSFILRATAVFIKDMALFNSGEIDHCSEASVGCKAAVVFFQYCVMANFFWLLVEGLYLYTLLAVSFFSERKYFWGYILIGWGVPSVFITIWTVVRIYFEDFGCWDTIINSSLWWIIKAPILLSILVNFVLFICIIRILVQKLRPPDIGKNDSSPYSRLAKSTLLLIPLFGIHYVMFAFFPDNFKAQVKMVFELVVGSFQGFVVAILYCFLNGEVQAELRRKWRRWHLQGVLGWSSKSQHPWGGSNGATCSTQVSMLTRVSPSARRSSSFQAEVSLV
Text: as §1, §2, §3, §4

[1] = tested on: Class A G protein-coupled cholecystokinin receptor; assay: cAMP levels in CHO cell lines expressing cholecystokinin receptor; assay type: cell-based; details: CHO cell lines expressing high concentrations of cholecystokinin receptor
[2] = tested on: parental CHO cell line not expressing the secretin receptor; assay: cAMP accumulation in parental CHO cell line; assay type: cell-based, Chinese hamster; details: concentrations as high as 100 μM
Text: as §5, with “Presented in panel C are curves of cAMP accumulation in CHO-SecR cells in response to increasing concentrations of a linear tripeptide, cyclic tripeptides, or a myristolated cyclic tripeptide. Adherent cells that were 75 percent confluent were stimulated with the polypeptide in Krebs-Ringers-HEPES medium for 30 min at 37° C.” left out, “Values represent means±S.E.M. of data from a minimum of three independent assays performed in duplicate. Myr indicates myristoylated cyclic tripeptide.” left out
It was determined whether a synthetic polypeptide corresponding to the region of the secretin receptor amino terminus between residues 24 and 53 (FIG. 1), which shares no homology with any part of the natural agonist polypeptide, could act as an endogenous agonist ligand. […]

Substance: CTR(73-80): polypeptide corresponding to amino acids 73 to 80 of the human calcitonin receptor ([Dap]NRTWDGWLD; not fully specified (bridges); listed as Homo sapiens)
activity at other structurally-related family members (Class B receptors): also active
agonist activity (cAMP accumulation) (calcitonin receptor): low potency agonist activity

Substance: GLP1R(63-70): polypeptide corresponding to amino acid residues 63 to 70 of the human GLP1R (NRTFDEYA; listed as Homo sapiens)
agonist activity (stimulation of cAMP accumulation) (secretin receptor; CHO-SecR cells): active as an agonist
agonist activity (cAMP accumulation) (human GLP1R): active as an agonist
agonist activity (cAMP accumulation) (VPAC1 receptor): active as an agonist

Substance: leucine-tryptophan-aspartate-asparagine-methionine [LWDNM]
agonist activity (stimulation of cAMP accumulation) (secretin receptor; CHO-SecR cells): Agonist activity was maintained

Substance: tryptophan-aspartate-asparagine [linear tripeptide]
agonist activity (stimulation of cAMP accumulation) (secretin receptor; CHO-SecR cells): stimulated cAMP accumulation

More lines, main results first:

agonist activity (stimulation of cAMP accumulation) (secretin receptor; CHO-SecR cells): weakly potent agonist
Substance: SecR(24-53): polypeptide corresponding to amino acids 46 to 75 of the rat secretin receptor (SEQ ID NO:1) ([Dap]CLQQLSKEKKGALGPETASGSEGLWDNMSCD; cysteine pairing not given here)
effect on cAMP levels [1]: did not affect cAMP levels
effect on cAMP levels [2]: no effect

agonist activity (cAMP accumulation) (human GLP1R): active as agonists
agonist activity (cAMP accumulation) (VPAC1 receptor): low potency agonist activity
Substance: VPAC1(51-71): polypeptide corresponding to amino acids 51 to 71 of the rat VPAC1 receptor ([Dap]LEEAQLENETTGSSKMWDNLTD; not fully specified (bridges))
activity at other structurally-related family members (Class B receptors): also active

efficacy (cAMP accumulation) (secretin receptor; CHO-SecR cells): maintained full efficacy
agonist activity (cAMP accumulation) (human GLP1R): active as agonists
Substance: cyclic WDN (tryptophan-aspartate-asparagine) tripeptide
potency (cAMP accumulation), relative comparison (secretin receptor): enhanced relative to that of the linear polypeptide

potency (cAMP accumulation), relative comparison (secretin receptor): further enhanced
Substance: myristoylated cyclic tripeptide: cyclic WDN polypeptide modified by fatty acid acylation (myristoyl group) ([Dap]WDND; lactam N-C; also: myristoyl group, site not given here)

Reference: patent US20090220997A1, “Stimulating G Protein-Coupled Receptors” (MAYO FOUNDATION FOR MEDICAL EDUCATION AND RESEARCH, priority 2005, published 2009)
